Measured values published in the supplement of paper PMC10307832.

Columns and labels:
Test in all cases: relative viability (nuclei count vs DMSO), 5 days (fraction); higher = more cells survive
[1] = compound: COC1=CC=C(C=C1)COC2=C(C=C(C=C2)CC3=CN=C(N=C3N)N)OC [GW-2580] + O=C(c1cc(Cc2n[nH]c(=O)c3ccccc23)ccc1F)N1CCN(C(=O)C2CC2)CC1 [Olaparib] (partner 8 µM)
Summary of the method: (§1)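 Cells from lung cancer lines were seeded into 1536-well plates and, one day later, dosed by pin tool. Treatments were either a single drug or a fixed dose of an anchor drug with five library-drug doses (not always all listed) in √10 steps. After 5 days, nuclei were stained in a one-step fixation (final 0.05% Triton X-100, 1% formaldehyde, 1 ug/ml Hoechst) and counted on 4× images, and relative viability is the treated-to-vehicle nuclei ratio, as the median of duplicate plates.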

[2] = compound: COC1=CC=C(C=C1)COC2=C(C=C(C=C2)CC3=CN=C(N=C3N)N)OC [GW-2580] + COc1cc2c(Oc3ccc(NC(=O)C4(C(=O)Nc5ccc(F)cc5)CC4)cc3F)ccnc2cc1OCCCN1CCOCC1 [Foretinib] (partner 0.25 µM)
Summary of the method: as §1

[3] = compound: COC1=CC=C(C=C1)COC2=C(C=C(C=C2)CC3=CN=C(N=C3N)N)OC [GW-2580] + Cc1cc(Nc2cc(N3CCN(C)CC3)nc(Sc3ccc(NC(=O)C4CC4)cc3)n2)n[nH]1 [Tozasertib] (partner 0.1 µM)
Summary of the method: as §1

[4] = compound: COC1=CC=C(C=C1)COC2=C(C=C(C=C2)CC3=CN=C(N=C3N)N)OC [GW-2580] + CS(=O)(=O)CCNCc1ccc(-c2ccc3ncnc(Nc4ccc(OCc5cccc(F)c5)c(Cl)c4)c3c2)o1 [Lapatinib] (partner 2 µM)
Summary of the method: as §1

[5] = compound: COC1=CC=C(C=C1)COC2=C(C=C(C=C2)CC3=CN=C(N=C3N)N)OC [GW-2580] + C[C@]1(O)C[C@@H](c2nc(-c3ccc4ccc(-c5ccccc5)nc4c3)c3c(N)nccn32)C1 [Linsitinib] (partner 1 µM)
Summary of the method: as §1

Cell Line	relative viability ([1]; first compound 0.08 µM)	relative viability ([1]; first compound 0.8 µM)	relative viability ([1]; first compound 2.53 µM)	relative viability ([1]; first compound 8 µM)	relative viability ([2]; first compound 0.08 µM)	relative viability ([2]; first compound 0.8 µM)	relative viability ([2]; first compound 2.53 µM)	relative viability ([2]; first compound 8 µM)	relative viability ([3]; first compound 0.08 µM)	relative viability ([3]; first compound 0.8 µM)	relative viability ([3]; first compound 2.53 µM)	relative viability ([3]; first compound 8 µM)	relative viability ([4]; first compound 0.08 µM)	relative viability ([4]; first compound 0.8 µM)	relative viability ([4]; first compound 2.53 µM)	relative viability ([4]; first compound 8 µM)	relative viability ([5]; first compound 0.08 µM)	relative viability ([5]; first compound 0.8 µM)	relative viability ([5]; first compound 2.53 µM)	relative viability ([5]; first compound 8 µM)
NCI-H2342	0.397	0.59	0.382	0.382	1.02	1.05	0.942	1.07	0.557	0.498	0.516	0.418								
HCC-15	0.841	0.628	0.66	0.75	1.06	1.09	1.01	0.958	0.489	0.562	0.615	0.222	0.87	1.08	0.807	0.866	0.989	1.02	0.834	0.785
A-427	0.76	0.711	0.756	0.737	1.1	1.14	0.892	1.01	0.198	0.208	0.19	0.172	1.17	1.15	0.98	1.07	1.18	1.16	1.01	1.08
NCI-H2228	0.667	0.828	0.785	0.635	0.947	0.95	0.879	0.848	0.28	0.351	0.226	0.235	0.893	1.28	1.38	1.02	0.88	0.664	0.79	0.633
NCI-H1734	0.65	0.589	0.585	0.636	0.894	0.855	0.783	0.717	0.25	0.267	0.277	0.252	1.17	1	1.01	1.01	0.899	0.839	0.895	0.911
PC-14	0.243	0.247	0.242	0.295	1.08	1.07	0.924	0.936	0.665	0.68	0.514	0.468	0.379	0.35	0.307	0.268	1.12	0.987	0.934	1.03
NCI-H1915	0.222	0.233	0.293	0.259	1.26	0.768	1.12	1.06	0.469	0.44	0.489	0.387	1.13	1.05	1.04	1.03	1.2	1.13	1.1	1.11
NCI-H1666	0.758	0.757	0.794	0.737	0.928	0.936	0.948	0.991	0.675	0.661	0.581	0.592	0.601	0.757	0.847	0.431	0.765	1.02	0.742	0.724
HCC-366	0.379	0.526	0.387	0.417	1	0.879	0.964	0.791	0.102	0.146	0.12	0.19	1.08	1.02	0.977	1.19	0.51	0.678	0.496	0.882
SK-MES-1	0.79	0.795	0.603	0.777	1.03	0.934	0.962	0.915	1.06	1.06	0.88	0.816	0.47	0.496	0.392	0.474	1.12	1.14	1.01	1.09
SW 1573	0.477	0.474	0.492	0.543	1.02	1.02	1.02	0.852	0.183	0.2	0.219	0.24	0.979	1.11	1.18	0.856	0.744	0.806	0.713	0.66
NCI-H661	0.807	0.813	0.722	0.665	1.08	0.987	1.03	0.771	0.34	0.344	0.367	0.336	0.448	0.647	0.378	0.459	0.493	0.615	0.419	0.439
PC-3 [JPC-3]	1.12	1.26	1.03	1.15	1.06	1.06	0.948	0.865	0.89	0.916	0.891	0.854	0.458	0.462	0.358	0.446	0.96	0.995	0.966	0.967
NCI-H1623					0.866	1.01	0.725	0.986	0.631	0.416	0.594	0.486								
Calu-6	0.657	0.663	0.559	0.636	0.866	0.898	0.915	0.858					1.14	1.18	1.06	1.08	1.11	0.938	0.913	1.02
LC-2-ad	0.723	0.727	0.702	0.722	0.826	0.931	0.991	0.936	0.501	0.412	0.405	0.475	1.14	0.982	0.992	0.896	0.817	0.874	0.84	0.786
CAL-12T	0.743	0.817	0.726	0.69	1.2	1.25	1.11	1.06	0.422	0.365	0.349	0.297	0.601	0.662	0.545	0.735	0.985	0.815	0.917	0.762
